Data on 14 molecules can be found in patent publication US12274703B2, “Compositions and methods of treatment for neurological disorders comprising a dementia” (Gliapharm SA, priority 2017, dated 2025).

Counter-ions that a name gives are not always drawn. Like-named read-outs stand apart in the source and are kept apart here.

For test [1], the system named is astrocytes. As to the kind of experiment: MTT viability assay. It is filed as cell-based. The conditions noted are these: Mus musculus, Astrocyte, cellular toxicity, 0-200 uM. How it is done:
(§1) Primary cultures of cerebrocortical astrocytes were obtained from 1-2-day-old OF1 mouse pups (Charles River Laboratories). Briefly, cortices were isolated and minced in small pieces under a dissecting microscope. The cells were incubated for 30 min at 37° C. in a solution containing 20 U/ml of papain enzyme (Worthington Biochemical), L-cysteine 1 mM (Sigma), and 10 kU/ml DNase I (Worthington Biochemical) for an enzymatic dissociation. Papain activity was stopped by the addition of fetal calf serum (FCS) to the solution, and a single-cell suspension was then obtained by mechanical dissociation, which consisted in cells trituration in a DMEM (D7777, Sigma-Aldrich) medium (supplemented with 44 mm NaHCO3, and 10 ml/L antibiotic/antimycotic solution) containing 10% FCS. The cells were seeded at an average density of 6×10^4 cells/cm^2 in poly-D-lysine-coated 96, 12 or 6-well culture plates, depending on their use, and incubated at 37° C. in a humidified atmosphere containing 5% CO2/95% air. Culture medium was renewed twice per week. Cells were stimulated and harvested between DIV14 and DIV17, when confluence and cell growth were optimal.
For cell toxicity determination, astrocytes in 96-well plates were stimulated 24 h (37° C. 5% CO2/95% air) with a gradient ranging from 0.1 to 200 μM of tested compounds. After stimulation, 5 mg/ml thiazol blue tetrazolium bromide (MTT, Sigma-Aldrich) in warm D5030 complete medium was added to each well, and cells were incubated for 4 h at 37° C. (5% CO2). The medium was then removed by aspiration, and the reaction was stopped by the addition of 50 μl DMSO per well.
The amount of reduced MTT (formazan) solubilized in DMSO was then determined spectrophotometrically using absorbance at 570 nm (Safire 2; Tecan).
MTT cellular viability assay was performed on astrocytes exposed to molecules from the Prestwick library (Prestwick hits; concentrations ranging from 0 uM to 200 uM).
MTT cellular viability assay was performed on astrocytes exposed to CDC54K hits (concentrations ranging from 0 uM to 200 uM).
(Tetrazolium dyes change colour on reduction, which living cells bring about.)

In a further test the test system is primary astrocytes. As to the kind of experiment: High throughput screening for lactate secretion: acidification of extracellular medium (SNARF5). The conditions noted are these: for Emax at 10 µM: Mus musculus, Astrocyte, 1.5 h; for Score_SNARF: primary screening confirmation (SNARF5). Set-up: key to Score / HTS Score (lactate) / HTS Score (SNARF5) / Score_SNARF: fraction of positive control activity (positive control = 100%). It is filed as cell-based, mouse. The procedure, abridged: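 Mouse cortical astrocytes (DIV17) stimulated 90 min at 10 uM compound (1% DMSO) in low-bicarbonate DMEM, 5 mM glucose, with SNARF-5F; extracellular acidification read as 630/580 nm emission ratio (exc 480 nm). Duplicates; score as % of CCCP 2 uM control, hits >3× summed SD above DMSO.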

Test [2] relates to astrocytes. Put plainly: Extracellular lactate quantification. It is filed as cell-based, mouse. The note with it: for EC50: Mus musculus, Astrocyte; for Score_LACTATE: Appendix I, secondary screening, dosage of extracellular lactate. As to the method: as §1
Secretion of L-lactate was determined in the extracellular medium of 96-well plated astrocytes after 90 min stimulation (at 37° C., in 5% CO2/95% air conditions) with the drug of interest. The stimulation medium was composed of D5030 medium (completed with D-glucose 5 mM and 44 mM sodium bicarbonate) for 90 min in concentrations ranging from 0 to 100 μM.
Briefly, 200 μl of a Glycine (Sigma)-Semicarbazide (Acros) 0.2M pH 10 buffer containing 3 mM NAD (Roche) and LDH 14 U/ml (Roche) was added to each well of a 96-well plate containing 30 μl aliquots complemented with 20 μl fresh complete D5030 medium. Samples were incubated at 37° C. for 1 h. After samples cooled down at room temperature, the fluorescence intensity (340 nm excitation/450 nm emission) that represents the amount of NADH produced was measured, and lactate concentration values were determined from a standard curve of L-lactate.
Statistical analysis consisted in ANOVA followed by Fisher LSD post-hoc test for pair-wise comparisons.
Levels of lactate secreted by astrocytes were measured in the extracellular medium at 90 min after stimulation with hits (molecules) from the CDC54K library.

The test system of test [3] is astrocytes. Put plainly: Intracellular glycogen quantification. The note with it: 10 μM, 3 h. The test is classed as cell-based, mouse.
Test [4] concerns astrocytes. Put plainly: Production of H2O2 (mitochondrial activity). The conditions noted are these: Mus musculus, Astrocyte, 1.5 h; CDC54K hits; 0-200 uM, 90 min. It is filed as cell-based. As to the method: as §1
Hydrogene peroxide (H2O2) released in the supernatant is detected enzymatically with Amplex red (Zhou, Diwu et al. 1997). Oxidation of Amplex red is catalysed by the horseradish peroxidase in presence of H2O2 into highly fluorescent resorufin. Fluorescence measure is read at 545 nm extinction, 590 nm emission. The amount of H2O2 was expressed relatively to the proteins content extracted from the cells in culture. […]
Mitochondrial respiration in astrocytes was measured through production of H2O2 at 90 min after stimulation with CDC54K hits (ranging from 0 to 200 uM).

The mark [5] stands for this setting: Prestwick hits, 10 uM, 90 min, activity relative to positive control CCCP 2 uM, read-out: Score.
The mark [6] stands for this setting: Prestwick hits, 10 uM, 90 min, relative to positive control CCCP 2 uM, read-out: HTS Score (lactate).
[7] abbreviates: 1.5 h, Prestwick hits, 0-100 μM, 90 min, read-out: Lactate EC50.
Where [8] appears, read: Appendix I, primary screening, 10 uM, 90 min, relative to positive control, read-out: Score.
The mark [9] stands for this setting: CDC54K hits, 10 uM, 90 min, relative to positive control CCCP 2 uM, read-out: HTS Score (SNARF5).
[10] abbreviates: 1.5 h, CDC54K hits, 0-100 uM, 90 min, read-out: Lactate EC50.
Where [11] appears, read: Appendix I, primary screening, 10 uM, 90 min, relative to positive control.
[12] abbreviates: CDC54K hits, 10 uM, 90 min, relative to positive control CCCP 2 uM.

Usually IC50 stands for the midpoint of a concentration-inhibition curve. For orientation: EC50 means the midpoint of the concentration-response curve.

Regarding `O=C(COc1ccc(Cl)cc1)N1CCN(Cc2ccc3c(c2)OCO3)CC1` [Fipexide hydrochloride], in the test on astrocytes [1] (Prestwick hits, 24 h), it took 44 µM to reach half-maximal inhibition (IC50). Besides, the Emax at 10 µM in the test on primary astrocytes (setting [5]) and with primary astrocytes (setting [6]) was 16.6% each time. In the test with astrocytes [2] (setting [7]), the EC50 was found to be 5.16 µM. For the same molecule, the “Glycogen (statistical significance of glycogen degradation)” value with astrocytes [3] (Prestwick hits) was “ns”.
On to `COc1ccccc1NC(=O)Cc1nn(C)c(=O)c2ccccc12` [K851-0113], for which the IC50 with astrocytes [4] and in the test with astrocytes [1] (CDC54K hits) was over 200 µM throughout. Also, the Emax at 10 µM in the test with primary astrocytes (setting [8]) and in the test on primary astrocytes (setting [9]) was 72.2% throughout. In addition, the EC50 with astrocytes [2] (setting [10]) was 2 µM. Besides, the “Glycogen (statistical significance of glycogen degradation)” value in the test with astrocytes [3] (CDC54K hits) was “ns”.
For `CSc1cccc(NS(=O)(=O)c2ccc3onc(C(=O)N4CCCC4)c3c2)c1` [L995-0125], the IC50 was 173 µM in the test on astrocytes [4] and over 200 µM in the test with astrocytes [1] (CDC54K hits). In the test on primary astrocytes (Appendix I), this molecule returned a Score_SNARF of 0.8016. The Score in the test with primary astrocytes (setting [11]) was 0.8545. Besides, the “HTS Score (SNARF5)” value in the test on primary astrocytes (setting [12]) was determined as 0.854. In the test on astrocytes [2], the Score_LACTATE is given as 0.9122. In addition, the EC50 in the test on astrocytes [2] (setting [10]) amounted to 2 µM. In addition, the “Glycogen (statistical significance of glycogen degradation)” value with astrocytes [3] (CDC54K hits) was “ns”.
Regarding `COc1ccc(Cc2nccc3cc(OC)c(OC)cc23)cc1OC` [Papaverine hydrochloride], in the test on astrocytes [1] (Prestwick hits, 24 h), the IC50 was over 200 µM. Moreover, the Emax at 10 µM in the test on primary astrocytes (setting [5]) and in the test with primary astrocytes (setting [6]) was 35.5% in each case. Also, the concentration giving a half-maximal response (EC50) in the test with astrocytes [2] (setting [7]) was determined as 0.629 µM.
`[H]/N=C(\N/C(=N/[H])Nc1ccc(Cl)cc1)NC(C)C` [Proguanil hydrochloride]: in the test on astrocytes [1] (Prestwick hits, 24 h), half-maximal inhibition (IC50) required 48.1 µM. Besides, the Emax at 10 µM in the test on primary astrocytes (setting [5]) and in the test with primary astrocytes (setting [6]) was 55.5% in each case. Moreover, the EC50 in the test with astrocytes [2] (setting [7]) came to 0.854 µM.
Take `CC(C)[N+](C)(CCOC(=O)C1c2ccccc2Oc2ccccc21)C(C)C` [Propantheline bromide]: half-maximal inhibition in the test with astrocytes [1] (Prestwick hits, 24 h) (IC50) was put at 12.8 µM. Besides, the Emax at 10 µM in the test on primary astrocytes (setting [5]) and in the test with primary astrocytes (setting [6]) was 49.1% each time. For the same molecule, in the test on astrocytes [2] (setting [7]), the EC50 was 11.7 µM.
Consider `Fc1ccc(-c2cc3n(n2)CCCN(Cc2ccncc2)C3)cc1` [T202-1455], for which the IC50 with astrocytes [4] and with astrocytes [1] (CDC54K hits) was over 200 µM throughout. Besides, the Emax at 10 µM in the test on primary astrocytes (setting [8]) and in the test with primary astrocytes (setting [9]) was 97.1% each time. In the test on astrocytes [2] (setting [10]), the concentration giving a half-maximal response (EC50) was determined as 15 µM. In addition, the “Glycogen (statistical significance of glycogen degradation)” value with astrocytes [3] (CDC54K hits) was “ns”.
Regarding `CC(=O)c1cccc(NC(=O)C(C)Sc2ncnc3ccccc23)c1` (stereo not drawn) [T0511-9200], the IC50 in the test on astrocytes [4] and with astrocytes [1] (CDC54K hits) was over 200 µM in each case. In addition, the Emax at 10 µM in the test on primary astrocytes (setting [8]) and with primary astrocytes (setting [9]) was 84.4% each time. For the same molecule, the EC50 in the test on astrocytes [2] (setting [10]) came to 10.2 µM. In addition, the “Glycogen (statistical significance of glycogen degradation)” value in the test on astrocytes [3] (CDC54K hits) is recorded as “ns”.
Consider `CCc1ccc(S(=O)(=O)N2CCSC2c2ccc(OC)c(OC)c2)cc1` (stereo not drawn) [T5463586], for which the half-inhibitory concentration (IC50) in the test on astrocytes [4] and in the test on astrocytes [1] (CDC54K hits) was over 200 µM each time. In the test on primary astrocytes (Appendix I), the Score_SNARF turned out to be 0.5553. For the same molecule, the Score in the test with primary astrocytes (setting [11]) came to 0.7707. In addition, in the test with primary astrocytes (setting [12]), the “HTS Score (SNARF5)” value stood at 0.77. The molecule also came in with a Score_LACTATE in the test with astrocytes [2] of 0.3936. The concentration giving a half-maximal response (EC50) with astrocytes [2] (setting [10]) came out at 10 µM.
In the case of `CCc1ccc(S(=O)(=O)Nc2ccc3[nH]ncc3c2)cc1` [T5599014], the concentration for half-maximal inhibition (IC50) with astrocytes [4] was 158 µM; with astrocytes [1] (CDC54K hits), over 200 µM. This molecule also returned a Score_SNARF with primary astrocytes (Appendix I) of 0.5778. Besides, in the test on primary astrocytes (setting [11]), the Score came out at 0.5424. In addition, the “HTS Score (SNARF5)” value in the test with primary astrocytes (setting [12]) stood at 0.542. For the same molecule, the Score_LACTATE with astrocytes [2] is recorded as 0.4419. Also, the EC50 with astrocytes [2] (setting [10]) was 8.8 µM. In the test with astrocytes [3] (CDC54K hits), the “Glycogen (statistical significance of glycogen degradation)” value is reported as “ns”.
As for `COc1cccc(CNS(=O)(=O)c2ccc3c(c2)CCCN3C(C)=O)c1` [T5967389], the IC50 in the test with astrocytes [4] and in the test on astrocytes [1] (CDC54K hits) was over 200 µM throughout. Besides, the Emax at 10 µM in the test with primary astrocytes (setting [8]) and in the test on primary astrocytes (setting [9]) was 79% each time. For the same molecule, the concentration giving a half-maximal response (EC50) in the test on astrocytes [2] (setting [10]) was found to be 23.5 µM; in the test on astrocytes [2] (Appendix II, lactate secretion, read-out: EC50), 9.67 µM.
In the test with astrocytes [1] (Prestwick hits, 24 h), `C#C[C@]1(O)CC[C@H]2[C@@H]3[C@H](C)CC4=C(CCC(=O)C4)[C@H]3CC[C@@]21C` [Tibolone] showed an IC50 of 60.7 µM. The Emax at 10 µM in the test with primary astrocytes (setting [5]) and in the test on primary astrocytes (setting [6]) was 22.7% throughout. Further, the 50% effective concentration (EC50) with astrocytes [2] (setting [7]) was found to be 2.23 µM.
For the molecule `O=c1n(CCCN2CCN(c3cccc(Cl)c3)CC2)nc2ccccn12` [Trazodone hydrochloride, trazodone, reference compound], in the test with primary astrocytes (Prestwick hits, 10 uM, 90 min, activity relative to positive control CCCP 2 uM), the Score came out at 0.08377. Further, in the test with primary astrocytes (Prestwick hits, 10 uM, 90 min, relative to positive control CCCP 2 uM), the “HTS Score (lactate)” value was 0.084. For the same molecule, the “Glycogen (statistical significance of glycogen degradation)” value in the test on astrocytes [3] (Prestwick hits) was “ns”.
In turn, `Cc1c(C)c2c(c(C)c1O)CCC(C)(COc1ccc(CC3SC(=O)NC3=O)cc1)O2` (stereo not drawn) [Troglitazone] gave an IC50 in the test with astrocytes [1] (Prestwick hits, 24 h) of 106 µM. The Emax at 10 µM with primary astrocytes (setting [5]) and in the test on primary astrocytes (setting [6]) was 27% each time. In addition, the concentration giving a half-maximal response (EC50) in the test on astrocytes [2] (setting [7]) worked out at 2.57 µM.
